# Tests used:
# recombinant hDOT1L = recombinant hDOT1L (Homo sapiens, UniProt Q8TEK3); assay: AlphaLISA DOT1L enzymatic inhibition assay on purified nucleosomes
# Microsomal stability = format: in vitro ADME; settings: mouse, liver microsomes
# MV4-11 cells (MLL-AF4) = assay: Cell proliferation and viability, trypan blue counting; format: cell-based, human
# KOPN8 cells (MLL-ENL) = assay: Cell proliferation, trypan blue counting; format: cell-based; settings: Homo sapiens, KOPN-8, 360 h, 15-day treatment, read-out: EC50 of the proliferation inhibition
# Description: (§1) For assessment of cell proliferation and viability in human cell lines, exponentially growing cells were placed, in triplicate, in 96-well plates at a density of 35,000 cells/well at a final volume of 100 µL. […] The viable cell number was determined every 3–4 days for up to 15 days to 21 days using trypan blue counting using Cellometer Disposable Counting Chambers for the Cellometer Mini Automated Cell Counter.
# NOMO-1 cells (MLL-AF9) = assay: Cell proliferation, trypan blue counting; format: cell-based; settings: Homo sapiens, 360 h; NOMO-1 (AF9), 15-day treatment; read-out: EC50 of the proliferation inhibition
# Description: as §1
# MOLM-13 cells (MLL-AF9) = assay: Cell proliferation, trypan blue counting; format: cell-based; settings: Homo sapiens, 360 h; MOLM-13 (AF9), 15-day treatment; read-out: EC50 of the proliferation inhibition
# H3K79me2 in MV4-11 cells = assay: Western blot of H3K79me2 normalized to total H3; format: cell-based, human; settings: MV4-11, 4 days, increasing concentrations
# Description: Next, we evaluated the effect on the demethylation of H3K79 in MLL-AF9 MOLM13 cells (Figure 7B).
# The non-adherent cell lines MV4-11, MOLM-13, and KOPN8 exponentially growing cells were plated in 12-well plates (1 plate for each experiment) at a rate of 500,000 cells per well at a final volume of 2 mL. The cells were incubated in the presence of increasing inhibitor concentrations (0.1, 0.32, 1, 3.2, 10 µM). The cells (1 to 2 million) were harvested at the time chosen according to the line in order to extract the histones and the RNAs.
# For the isolation of histones from cells, 1 to 2 million cells were collected, after exposure to the chosen treatment, by centrifugation at 200× g and lysed by 5 min of incubation on ice in 250 μL of the nuclear extraction buffer (10 mM Tris-HCl, 10 mM MgCl2, 25 mM KCl, 1% Triton X-100, 8.6% sucrose, Roche Protease inhibitor tablet 1836145). The nuclei were collected by centrifugation at 600× g for 5 min at 4 °C. The supernatant was removed and the histones were extracted for 1 h with 0.4 N cold sulfuric acid. The extracts were clarified by centrifugation at 10,000× g for 10 min at 4 °C and transferred to a microcentrifuge tube containing a 10× volume of ice-cold acetone. The histones were precipitated at ‒20 °C overnight and recovered by centrifugation at 1500× g for 10 min in the form of a pellet and then resuspended in 80 μL of water. Histones were quantified by absorbance measured by a nanodrop at 276 nm.
# After extraction, the histones (500ng) were separated on 4–20% Tris-Glycine gels (Invitrogen) and transferred onto a nitrocellulose membrane ([…]) using the iBlot® Gel Transfer Stacks Nitrocellulose kit Mini (Invitrogen). After blocking nonspecific sites for 1 h at room temperature in a solution of 1X TBS at 5% milk, the membrane was incubated with rabbit anti-H3K79me2 (ab3594, 1/1000) or anti-H3 (ab1791)1/1000) overnight at 4 °C or 1 h at RT. The membrane was then washed three times for 5 min in a 1X TBS solution containing 0.05% Tween20 and was then incubated with an HRP anti-rabbit secondary antibody (NA934V, 1/10,000) for 1 h at RT. […]
# MV4-11 cells [1] = assay: Flow cytometry cell cycle analysis (propidium iodide); format: cell-based, human; settings: MV4-11, 1 µM
# Description: (§2) A decrease in the S phase of the cell cycle was also observed from 24% (day 8) to 20% (day 10), 13% (day 12).
# (§3) In a 12-well plate, 2 mL exponentially growing MV4-11 cells were plated with a density of 2 × 10^5 cells/mL. […] Culture media and drugs were replaced every 2–3 days and cells were split back to a density of 2 × 10^5 cells/mL at the same time. Cells were harvested on days 8, 10, 12 and split to allow the analysis of cell cycle and Annexin V staining simultaneously. The apoptosis ratio was detected by an Annexin V-APC/7-AAD double staining assay (SONY 3804610) and cells were prepared according to the manufacturer’s recommendations. Cells for the cell cycle analysis were collected by centrifugation at 500× g for 5 min at 4 °C. The pellets were washed once with cold PBS and then fixed with 70% ethanol on ice for 30 min. Afterwards, the cells were washed once with cold PBS and stained with propidium iodide (Invitrogen P3566) for 30 min at 37 °C. Samples were measured using an Attune NxT acoustic focusing cytometer (Life Technologies), data were analyzed by FlowJo.
# MV4-11 cells [2] = assay: Flow cytometry apoptosis analysis (Annexin V-APC/7-AAD); format: cell-based, human; settings: MV4-11
# Description: as §2, §3
# recombinant hDOT1L, sequence (Q8TEK3 1-416): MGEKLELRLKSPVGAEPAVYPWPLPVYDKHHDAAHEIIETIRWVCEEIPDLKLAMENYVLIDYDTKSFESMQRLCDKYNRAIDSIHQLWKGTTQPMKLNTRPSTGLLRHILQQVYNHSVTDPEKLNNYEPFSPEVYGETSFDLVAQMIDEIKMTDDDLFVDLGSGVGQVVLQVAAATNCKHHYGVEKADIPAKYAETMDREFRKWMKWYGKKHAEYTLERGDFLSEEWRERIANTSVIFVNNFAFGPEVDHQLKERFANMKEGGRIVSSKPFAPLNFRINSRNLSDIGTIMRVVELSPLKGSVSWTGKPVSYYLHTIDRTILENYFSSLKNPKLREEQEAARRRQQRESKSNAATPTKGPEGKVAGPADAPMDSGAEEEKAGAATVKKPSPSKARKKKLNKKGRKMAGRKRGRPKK
IC50 (recombinant hDOT1L) [nM],Structure (SMILES),half-life (Microsomal stability) [min],"EC50 (MV4-11 cells (MLL-AF4); Homo sapiens, 360 h, MV4-11 (AF4), 15-day treatment, read-out: EC50 of the proliferation inhibition) [nM]","effect on cell viability / proliferation (MV4-11 cells (MLL-AF4); MV4-11, after 8 days of treatment)",EC50 (KOPN8 cells (MLL-ENL)) [nM],EC50 (NOMO-1 cells (MLL-AF9)) [nM],EC50 (MOLM-13 cells (MLL-AF9)) [nM],H3K79me2 methylation compared to DMSO treated cells (H3K79me2 in MV4-11 cells),effect on the cell cycle (MV4-11 cells [1]),effect on apoptosis (MV4-11 cells [2])
316,"CC(C)[C@@H](CCCNC(=O)Nc1ccc(C(C)(C)C)cc1)N[C@H]1C[C@@H](n2cnc3c(N)ncnc32)[C@H](O)[C@@H]1O [Dia1, 1-((R)-4-(((1S,2R,3S,4R)-4-(6-amino-9H-purin-9-yl)-2,3-dihydroxycyclopentyl)amino)-5-methylhexyl)-3-(4-(tert-butyl)phenyl)urea]",–,–,–,–,–,–,–,–,–
–,"CC(C)N(CCCNC(=O)Nc1ccc(C(C)(C)C)cc1)C[C@H]1O[C@@H](n2ccc3c(N)ncnc32)[C@H](O)[C@@H]1O [EPZ-4777, reference compound]",5.3,–,–,–,–,–,–,–,–
–,"CC(C)N(C[C@H]1O[C@@H](n2cnc3c(N)ncnc32)[C@H](O)[C@@H]1O)[C@H]1C[C@@H](CCc2nc3cc(C(C)(C)C)ccc3[nH]2)C1 [EPZ-5676, reference compound]",5.7,21 ± 1,cell viability decreased by half,86 ± 4,562 ± 15,92 ± 2,efficient decrease in methylation,increase in cells in subG1,increase in apoptosis
